Test results taken from the METLIN SMRT retention time set (Domingo-Almenara et al. 2019).

Assay: gradient 5% acetonitrile 3 min, to 50% in 2 min, to 85% in 15 min, held 3 min, 100 µL/min
Settings: column: Zorbax Extend-C18 2.1 x 50 mm; eluents: water / acetonitrile, 0.1% formic acid
How it was run: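 The system's dead and dwell volumes were 40 μL and 900 μL, with a Zorbax Extend-C18 column (2.1 × 50 mm, 1.8 μm) run at 100 μL/min in water and acetonitrile containing 0.1% formic acid each. Pure standards were analyzed in mixtures of ~100 molecules by HPLC–quadrupole time-of-flight mass spectrometry in positive and negative ionization mode. Retention time was assigned from computationally picked, manually inspected adduct peaks.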

| SMILES | RP-LC retention time [s] |
| --- | --- |
| CN(C)C(=O)c1cnn(-c2cccc(F)c2)c1-n1cccc1 | 806 |
| COc1ccc(NC(=O)c2noc3c2CCCCC3)cc1OC | 907 |
| C#Cc1cccc(Nc2ncnc3cc4c(cc23)OCCOCCOCCO4)c1 | 674 |
| Cc1cccc(NS(=O)(=O)c2cc3n(c2)CCN(CC(C)C)C3=O)c1C | 852 |
| O=C(Nc1ccc2c(c1)OCCO2)[C@@H]1COCC(=O)N1Cc1ccc(F)cc1 | 765 |
| O=C(NC1CCCC1)c1nc(Nc2ccc(F)cc2)c2ccccc2n1 | 824 |
| CC1CCCN(CC2CCN(S(=O)(=O)Cc3c(F)cccc3Cl)CC2)C1 (stereo not given) | 685 |
| CC(C)Cc1ccc(S(=O)(=O)N2C[C@@H](F)C[C@H]2C(=O)N2CCCCC2)cc1 | 983 |
| CCc1ccc(NC(=O)c2cn(CC)nc2S(=O)(=O)N2CCSCC2)cc1 | 1100 |
| O=C(CCn1cnc2cc(-c3noc(-c4cccc(Cl)c4)n3)ccc21)N1CCOCC1 | 754 |
| CCC(C)n1nnc2cc(S(=O)(=O)N(C)CC(=O)NCCc3c[nH]c4ccccc34)ccc21 (stereo not given) | 885 |
| CCn1nccc1-c1cccc(-c2noc(CNS(=O)(=O)c3ccc(Cl)cc3)n2)c1 | 986 |
| CC(=O)c1cccc(NC(=O)N(c2ccccc2)c2ccccc2)c1 | 860 |
| O=c1c2cc(-c3ccc(F)cc3)nn2cnn1Cc1nc(-c2ccc(F)cc2)no1 | 1100 |
| Cc1cc(N2CCOCC2)nc(N2CCN(C(=O)c3ccc(-c4ccccc4)cc3)CC2)n1 | 720 |
| COc1cccc(CN2CC[C@@H]3CN(S(C)(=O)=O)[C@@H]3C2)n1 | 553 |
| COc1ccc(NC(=O)Cn2ccnc2-c2ccnc(N3CCOCC3)c2)cc1Cl | 631 |
| O=C(NC1CCCCCCC1)C1CCN(C(=O)c2ccccc2F)CC1 | 855 |
| CCOCCCNC(=O)CCc1cc2cc(OC)ccc2[nH]c1=O | 615 |
| COC(=O)c1c(NCc2ccco2)c2cccc(Cl)c2[nH]c1=O | 740 |
| Cc1cccc(NC(=O)Cn2ccc3ccn(C)c3c2=O)c1C | 761 |
| CSc1cccc(NC(=O)N(C)CCc2noc(-c3ccc(F)cc3)n2)c1 | 922 |
| CCc1noc([C@@H]2CC(F)(F)CN2C(=O)c2ccco2)n1 | 755 |

| SMILES | RP-LC retention time [s] |
| --- | --- |
| Fc1ccc(Cn2cc(-c3noc(-c4ccc5cc[nH]c5c4)n3)nn2)cc1 | 952 |
| COCCCNC(=O)CCCn1c(=O)c2cccn2c2ccccc21 | 682 |
| COc1cccc(C2c3c(oc4cc(C)c(C)cc4c3=O)C(=O)N2CCCN2CCOCC2)c1 (stereo not given) | 695 |
| CCOC(=O)c1cc(S(=O)(=O)N2CCCC2C(=O)Nc2ccc3c(c2)OCO3)cn1C (stereo not given) | 876 |
| CCOC(=O)CCNC(=O)N1[C@H]2CC[C@@H]1c1cnc(-c3ccccc3)nc1C2 | 794 |
| Cn1cnc2ccc(-c3noc(-c4cccs4)n3)cc21 | 685 |
| CC1Oc2ccc(S(=O)(=O)N3CCC(C(=O)N4CCN(c5ccccc5)CC4)CC3)cc2NC1=O (stereo not given) | 848 |
| CC(C)CCNC(=O)C1CCCN(c2ncnc3c2oc2ccccc23)C1 (stereo not given) | 786 |
| CN(CC1CCOC1)C(=O)Nc1ccccc1Cl (stereo not given) | 722 |
| O=C(CN1CCN(Cc2cccc(Cl)c2)C1=O)NCc1ccc(N2CCOCC2)cc1 | 736 |
| CCc1ccc(NC(=O)Cn2ncn3c(C)c(C(=O)NCc4ccccc4)c(C)c3c2=O)cc1 | 863 |
| Cc1ccc(N2N=NC3C(=O)N(c4cccc(Cl)c4)C(=O)C32)cc1F (stereo not given) | 1060 |
| CCOC(=O)CCc1c(C)nn(-c2cc(N(C)C)ncn2)c1C | 834 |
| COc1ccc(-c2nc3ncccn3c2Nc2cccc(Cl)c2C)cc1 | 845 |
| CSc1ccc(-c2nc3ccc(Cl)cn3c2Nc2ccc(Cl)cc2)cc1 | 993 |
| COc1ccc(-c2ncc3c(=O)n(Cc4cccc(OC)c4)c(=O)n(C)c3n2)cc1 | 1130 |
| COCCNC(=O)C1(c2ccc(NC(=O)c3cccs3)cc2)CC1 | 730 |
| O=C(Cn1nc2c(N3CCCCCC3)nccn2c1=O)NC1CCCCC1 | 681 |
| CCOc1ccc(NC(=O)C2CCN(S(=O)(=O)c3c(C)nn(-c4ccccc4)c3C)CC2)cc1 | 963 |
| O=C1NCCOCCN(S(=O)(=O)c2cccc(F)c2)[C@H]2CCC[C@@H]12 | 748 |
| Cc1sc(NC(=O)Cc2nn(C)c(=O)c3ccccc23)nc1-c1ccc(Cl)cc1 | 982 |
| COC(=O)c1c(-c2ccccc2)noc1NCc1ccccc1 | 1050 |
| COc1ccc(-c2ncc3c(=O)n(CC(=O)Nc4cc(OC)cc(OC)c4)cnc3n2)cc1 | 854 |

| SMILES | RP-LC retention time [s] |
| --- | --- |
| CCn1cc(C(=O)Nc2cccc(F)c2)c(S(=O)(=O)N2CCSCC2)n1 | 845 |
| CCc1noc(NC(C)=O)c1-c1ccc(C)c(S(=O)(=O)Nc2ccc(F)cc2Cl)c1 | 872 |
| CCC(C)NC(=O)c1cc2n(n1)CCCN(Cc1cccc(C)c1)C2=O (stereo not given) | 851 |
| Cc1c(Cl)cccc1NC(=O)Cn1c(C)nc2c(sc3nc(-c4ccccc4)ccc32)c1=O | 1210 |
| COCCn1cc2c3c(cccc31)CN(C(=O)Nc1cc(Cl)c(OC)cc1OC)CC2 | 993 |
| Cc1cccc(-c2noc(Cn3ncn4nc(-c5cccs5)cc4c3=O)n2)c1 | 1100 |
| CCOc1ccc(S(=O)(=O)N(C)C)c2ccccc12 | 950 |
| CC12C(=O)OC(=O)C1(C)C1CCC2O1 (stereo not given) | 813 |
| O=C(Nc1cc(F)ccc1F)c1c(O)c2cccnc2n(Cc2ccccc2)c1=O | 1170 |
| Cc1cc(C)cc(-c2nc(-c3ccc4c(c3)oc(=O)n4C)no2)c1 | 1060 |
| COc1ccc(-c2nc3ncccn3c2NCc2ccc(F)cc2)cc1OC | 692 |
| Cc1nnc(N2CCCC(C(=O)NCc3ccccc3F)C2)c2nn(-c3ccccc3)c(C)c12 (stereo not given) | 722 |
| CN1C(=O)c2cccnc2Sc2cc(C(=O)NCc3ccccc3)ccc21 | 746 |
| CC(=O)Nc1nnc(SCC(=O)Nc2ccc(OC(F)(F)F)cc2)s1 | 733 |
| CCCNC(=O)C1CCCN(c2ccc(SCC(=O)Nc3cc(F)ccc3F)nn2)C1 (stereo not given) | 698 |
| O=C(NCCc1ccccc1)C1CN(S(=O)(=O)c2cccnc2)CC12CCCCC2 (stereo not given) | 895 |
| COC(=O)C(Cc1ccccc1)NC(=O)C(NC(=O)OCc1ccccc1)C(C)C (stereo not given) | 894 |
| Cc1ccc(-c2ccc(=O)n(Cc3noc(C(=O)NCCc4ccc(S(N)(=O)=O)cc4)n3)n2)cc1 | 781 |
| CCn1nccc1-c1cccc(-c2noc(CNS(=O)(=O)c3ccccc3)n2)c1 | 884 |
| CSc1cccc(NC(=O)Cn2cccc(-c3nc(-c4ccccc4)no3)c2=O)c1 | 911 |
| CN(C)c1ccc2c(c1)CN(Cc1ccccc1C#N)CCO2 | 592 |
| Cc1ccc(C)c(N2CCN(S(=O)(=O)c3cc(-c4cnn5c(C)cc(C)nc45)ccc3C)CC2)c1 | 1270 |
| CCC1CN(C(=O)N2CCC(C(=O)NCCN3CCOCC3)CC2)c2ccccc2O1 (stereo not given) | 630 |

| SMILES | RP-LC retention time [s] |
| --- | --- |
| Cc1cccc(-c2nnc(-c3nc(NCc4cccnc4)c4ccccc4n3)o2)c1 | 691 |
| COc1ccc(-c2c(C)nn3c(N4CCN(c5ccccn5)CC4)cc(C)nc23)cc1OC | 600 |
| CC1(C)Cc2cccc(OCC(=O)NCCc3ccc(S(N)(=O)=O)cc3)c2O1 | 694 |
| Cc1cc(C(=O)N2CCCCCC2)nc2cc(-c3cccs3)nn12 | 977 |
| COc1cccc(-c2noc(CN3C(=O)COc4cc(C)ccc43)n2)c1 | 1050 |
| COc1ccc(-c2noc(C3CC(=O)N(c4ccccc4)C3)n2)cc1OC (stereo not given) | 964 |
| O=C(Nc1ccc(SCc2ccccc2F)nn1)c1cccs1 | 942 |
| O=C(C1CCCO1)N1CCC(OCc2nc(-c3ccccc3)no2)CC1 (stereo not given) | 778 |
| O=C(Nc1c(-c2ccccc2)nc2ccccn12)c1ccco1 | 598 |
| COc1cc(OC)c(NS(=O)(=O)c2cc(-c3c(C)noc3NC(C)=O)ccc2OC)cc1Cl | 792 |
| O=C(Cc1ccccc1Cl)N1CCc2nc(-c3ccc(Cl)cc3)ncc2C1 | 1140 |
| CSc1ccc(-c2noc(CN3C(=O)COc4cc(C)ccc43)n2)cc1 | 1130 |
| COC(=O)CNC(=O)Nc1ncc(-c2ccc(OC)cc2)n1C | 607 |
| CC1CCCCN1Cc1nnc(-c2ccccc2)o1 (stereo not given) | 597 |
| CCN1CCc2nc(NC(=O)C3CCN(S(=O)(=O)c4cccs4)CC3)sc2C1 | 634 |
| CNC(=O)C1CC(=O)N(C2CCCCC2)C1 (stereo not given) | 609 |
| COCCNC(=O)c1cn2cccc(C)c2n1 | 561 |
| COc1ccc2cc(C(=O)Nc3ccc(F)cc3)[nH]c2c1 | 910 |
| COc1ccc(C(O)CN2CCN(c3ccc(F)cc3)CC2)cc1 (stereo not given) | 652 |
| CC(C)OCCCNC(=O)Cn1cccc1-c1nc(-c2ccc(Cl)cc2)cs1 | 1100 |
| O=C(c1ccccc1)N1CCC(CCNS(=O)(=O)c2ccc(Br)cc2)CC1 | 909 |
